{"source": "patent US20080076729A1", "about": "“Interferon-beta gene therapy using an improved, regulated expression system” (Schering Aktiengesellachaft, priority 2005, published 2008)", "system": "Mx1 RNA in murine L929 cells", "assay": "Mx1 RNA induction in vitro in L929 cells (TaqMan RT-PCR)", "assay_type": "cell-based", "method": "FIG. 5 illustrates Mx1 RNA induction in vitro (in L929 cells) by mIFN-β. L929 cells were seeded at 5×10^5 cells in 6 well plates and stimulated with increasing amounts of purified recombinant mIFN-β protein. Four hours after treatment the cells were harvested, RNA isolated, and Mx1 RNA quantitated by TaqMan analysis. Mx1 RNA expression is plotted as the fold increase relative to GAPDH RNA.\n• A. Development of mIFN-β Biomarkers: For higher sensitivity in detection of murine IFN-β (mIFN-β) activity in vivo, biomarkers for mIFN-β activity were identified in mice after injection of mIFN-β protein or mIFN-β encoded gene therapy vectors. […] In the present study, the expression of the MxA mouse homologue, Mx1, (see e.g., Hug, H et al. Mol Cell Biol 8: 3065-79; Pavlovic, J (1993) Ciba Found Symp 176: 233-43) isolated from murine peripheral blood monocytes (PBMC's) was used to detect the presence of biologically active mIFN-β. • A quantitative PCR/RT-PCR assay was developed to quantitate the levels of Mx1 mRNA in murine PBMC's. […] The samples were analyzed with an Mx1-specific probe/primer combination. Mx1 expression was normalized to GAPDH expression measured in parallel using a standard assay from ABI. • The assay was validated in vitro by examining Mx1 RNA induction in murine L929 cells treated with purified recombinant mIFN-β protein (FIG. 5). […]"}
{"substance": "mIFN-β: purified recombinant murine interferon-beta protein", "values": [{"measurement": "EC50 of Mx1 RNA induction", "setting": "4 hours treatment", "result": "approximately 50 pg/ml"}, {"measurement": "increase in the level of Mx1 RNA", "setting": "relative to GAPDH", "result": 100, "unit": "fold"}]}
